The text below walks through data of patent US6352714B1, “Method of producing a metal nutrient for an animal feed” (DER, Inc., priority 2000, dated 2002).

The test system of this assay is nursery pigs. The experiment in a line: Chromium supplementation feeding study in nursery pigs (growth performance). Format: in vivo. Conditions: diet with 400 ppb chromium. The text has this: A study was made to determine the effects of chromium leather hydrolysate supplementation in nursery pigs, as compared with other complexes, namely chromium picolinate and a yeast chromium complex. In this study, three groups of forty pigs each, with a mean weaning age of 17.6 days, were fed diets containing the chromium leather hydrolysate proteinate, chromium tripicolinate, or yeast chromium complex. In addition, a control group of forty pigs were not fed a supplement. In all cases, the chromium containing complex contained 400 ppb of chromium. Data relating to the average daily gains were obtained over three phases with Phase I being 0-7 days, Phase II being 8-14 days, and Phase III being 15-21 days.
In the above Table, ADG is “average daily gain” and ADFI is “average daily feed intake”.

With “chromium tripicolinate [Chromium picolinate]”, the “ADFI (average daily feed intake)” value was 545 gms (Phase I, 0-7 days); 1.43 kg (Phase II, 8-14 days); 2.61 (Phase III, 15-21 days). Further, the “ADG (average daily gain)” value is given as 250 gms (Phase I, 0-7 days); 0.92 kg (Phase II, 8-14 days); 1.26 kg (Phase III, 15-21 days). Further, the Gain/Feed runs as follows: (Phase I, 0-7 days) 0.54; (Phase II, 8-14 days) 0.67; (Phase III, 15-21 days) 0.48.
